Data taken from the CheMixHub viscosity set.
± gives the uncertainty stated by the source.

Test: xn = mol fraction of the nth substance listed

In the case of `CCOC(=O)OCC` + COC(=O)OC, the viscosity (298.15 K, 101 kPa, x1 = 0.0355) is reported as 0.585 ± 0.005 mPa·s, the viscosity (298.15 K, 101 kPa, x1 = 0.0848) is reported as 0.594 ± 0.005 mPa·s and the viscosity (298.15 K, 101 kPa, x1 = 0.1396) is reported as 0.603 ± 0.005 mPa·s. The viscosity (298.15 K, 101 kPa, x1 = 0.2098) was 0.615 ± 0.005 mPa·s, the viscosity (298.15 K, 101 kPa, x1 = 0.2886) was 0.628 ± 0.005 mPa·s and the viscosity (298.15 K, 101 kPa, x1 = 0.3619) was 0.641 ± 0.005 mPa·s. For the same compound, the viscosity (298.15 K, 101 kPa, x1 = 0.4542) was 0.657 ± 0.006 mPa·s, the viscosity (298.15 K, 101 kPa, x1 = 0.5424) was 0.672 ± 0.006 mPa·s and the viscosity (298.15 K, 101 kPa, x1 = 0.6375) was 0.689 ± 0.006 mPa·s. For the same compound, the viscosity (298.15 K, 101 kPa, x1 = 0.7315) was 0.706 ± 0.006 mPa·s, the viscosity (298.15 K, 101 kPa, x1 = 0.838) was 0.726 ± 0.006 mPa·s and the viscosity (298.15 K, 101 kPa, x1 = 0.8896) was 0.736 ± 0.006 mPa·s. The viscosity (298.15 K, 101 kPa, x1 = 0.9462) was 0.747 ± 0.006 mPa·s.

Work on `COCCOCCO` + COC(=O)OC yielded a viscosity (298.15 K, 101.33 kPa, x1 = 0.0093) of 0.598 ± 0.008 mPa·s, a viscosity (298.15 K, 101.33 kPa, x1 = 0.0245) of 0.612 ± 0.008 mPa·s and a viscosity (298.15 K, 101.33 kPa, x1 = 0.037) of 0.623 ± 0.008 mPa·s. The viscosity (298.15 K, 101.33 kPa, x1 = 0.0694) was 0.655 ± 0.008 mPa·s, the viscosity (298.15 K, 101.33 kPa, x1 = 0.0966) was 0.685 ± 0.008 mPa·s and the viscosity (298.15 K, 101.33 kPa, x1 = 0.1283) was 0.723 ± 0.008 mPa·s. It also gave a viscosity (298.15 K, 101.33 kPa, x1 = 0.1675) of 0.774 ± 0.009 mPa·s, a viscosity (298.15 K, 101.33 kPa, x1 = 0.1922) of 0.806 ± 0.009 mPa·s and a viscosity (298.15 K, 101.33 kPa, x1 = 0.2198) of 0.848 ± 0.009 mPa·s. The viscosity (298.15 K, 101.33 kPa, x1 = 0.3005) was 0.984 ± 0.01 mPa·s, the viscosity (298.15 K, 101.33 kPa, x1 = 0.3454) was 1.069 ± 0.011 mPa·s and the viscosity (298.15 K, 101.33 kPa, x1 = 0.3786) was 1.142 ± 0.012 mPa·s. For the same compound, the viscosity (298.15 K, 101.33 kPa, x1 = 0.3835) was 1.154 ± 0.012 mPa·s, the viscosity (298.15 K, 101.33 kPa, x1 = 0.4083) was 1.214 ± 0.012 mPa·s and the viscosity (298.15 K, 101.33 kPa, x1 = 0.4365) was 1.284 ± 0.013 mPa·s. For the same compound, the viscosity (298.15 K, 101.33 kPa, x1 = 0.4695) was 1.364 ± 0.014 mPa·s, the viscosity (298.15 K, 101.33 kPa, x1 = 0.5345) was 1.538 ± 0.016 mPa·s and the viscosity (298.15 K, 101.33 kPa, x1 = 0.584) was 1.681 ± 0.017 mPa·s. The viscosity (298.15 K, 101.33 kPa, x1 = 0.623) was 1.803 ± 0.018 mPa·s, the viscosity (298.15 K, 101.33 kPa, x1 = 0.6563) was 1.916 ± 0.02 mPa·s and the viscosity (298.15 K, 101.33 kPa, x1 = 0.7394) was 2.226 ± 0.023 mPa·s. For the same compound, the viscosity (298.15 K, 101.33 kPa, x1 = 0.7818) was 2.402 ± 0.025 mPa·s, the viscosity (298.15 K, 101.33 kPa, x1 = 0.8262) was 2.598 ± 0.028 mPa·s and the viscosity (298.15 K, 101.33 kPa, x1 = 0.8705) was 2.802 ± 0.031 mPa·s. For the same compound, the viscosity (298.15 K, 101.33 kPa, x1 = 0.8876) was 2.889 ± 0.032 mPa·s, the viscosity (298.15 K, 101.33 kPa, x1 = 0.9134) was 3.004 ± 0.033 mPa·s and the viscosity (298.15 K, 101.33 kPa, x1 = 0.9327) was 3.098 ± 0.035 mPa·s. It also gave a viscosity (298.15 K, 101.33 kPa, x1 = 0.9669) of 3.272 ± 0.037 mPa·s.

`CCC#N` + COC(C)=O gave a viscosity (303.15 K, 101.33 kPa, x1 = 0.1119) of 0.35 ± 0.0033 mPa·s, a viscosity (303.15 K, 101.33 kPa, x1 = 0.2022) of 0.3551 ± 0.0033 mPa·s and a viscosity (303.15 K, 101.33 kPa, x1 = 0.2958) of 0.3608 ± 0.0034 mPa·s. The viscosity (303.15 K, 101.33 kPa, x1 = 0.4008) was 0.3657 ± 0.0034 mPa·s, the viscosity (303.15 K, 101.33 kPa, x1 = 0.4952) was 0.3692 ± 0.0034 mPa·s and the viscosity (303.15 K, 101.33 kPa, x1 = 0.5946) was 0.3732 ± 0.0034 mPa·s. For the same compound, the viscosity (303.15 K, 101.33 kPa, x1 = 0.6967) was 0.3773 ± 0.0034 mPa·s, the viscosity (303.15 K, 101.33 kPa, x1 = 0.7985) was 0.3811 ± 0.0034 mPa·s and the viscosity (303.15 K, 101.33 kPa, x1 = 0.9022) was 0.3857 ± 0.0035 mPa·s.
